From US8772504B2, “Substituted benzoxazole, benzimidazole, oxazolopyridine and imidazopyridine derivatives as gamma secretase modulators” (Janssen Pharmaceuticals, Inc., priority 2009, dated 2014) come the findings set out here.

As a reminder, the IC50 is the concentration that gives 50% inhibition. Broadly, the melting point is the temperature, or range, at which the solid turns liquid.

Data set [1] has as its system Aβ42. As to the kind of experiment: Screening for γ-secretase-modulating activity, Method 1: Aβ42 sandwich ELISA on SKNBE2 cell media. The data set is classed as cell-based. The following applies: Homo sapiens, SKNBE2 cells carrying APP 695 wild type. The method in brief: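 SKNBE2 cells expressing wild-type APP695 were treated with compound for 18 h in Ultraculture/1% glutamine. Secreted Aβ42 was quantified by sandwich ELISA (C-terminal capture, biotinylated 3D6, TMB, 450 nm), with WST-1 used as a toxicity check. IC50 was derived from 4-parameter fits of % inhibition or % of untreated control.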
Background: In an ELISA, binding on a coated surface is turned into a signal by an enzyme label.

Data set [2] deals with Aβtotal. Put plainly: Screening for γ-secretase-modulating activity, Method 1: Aβtotal sandwich ELISA on SKNBE2 cell media. The data set is classed as cell-based. The following applies: Homo sapiens, SKNBE2 cells carrying APP 695 wild type. The method in brief: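 SKNBE2 cells expressing wild-type APP 695 were treated with compound for 18 hours. Aβtotal in the medium was measured by sandwich ELISA (6E10 capture, biotinylated 4G8 detection, fluorogenic peroxidase read-out). IC50 came from a 4-parameter fit of % inhibition with top/bottom fixed at 100/0 and Hill slope 1, or as averaged IC50 from % of untreated control.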

The test system of data set [3] is Aβ42. Put plainly: In vivo efficacy Method 1: brain soluble Aβ42 by ELISA. Also noted: species or system mouse. The following applies: Table 4a, single oral dose, overnight fasted animals, sacrificed after 4 h, soluble fraction of brain homogenates. The source says:
(§1) To determine whether acute administration of an Aβ42 lowering agent would reduce Aβ42 levels in vivo, non-transgenic rodents, e.g. mice or rats were used. Alternatively, two to three month old Tg2576 mice expressing APP695 containing the “Swedish” variant can be used or a transgenic mouse model developed by Dr. Fred Van Leuven (K.U. Leuven, Belgium) and co-workers, with neuron-specific expression of a clinical mutant of the human amyloid precursor protein [V717I] […] Young transgenic mice have high levels of Aβ in the brain but no detectable Aβ deposition. At approximately 6-8 months of age, the transgenic mice start to display spontaneous, progressive accumulation of β-amyloid (Aβ) in the brain, eventually resulting in amyloid plaques within the subiculum, hippocampus and cortex. Animals treated with the Aβ42 lowering agent were examined and compared to those untreated or treated with vehicle and brain levels of soluble Aβ42 and total Aβ would be quantitated by standard techniques, for example, using ELISA.
(§2) A typical protocol for measuring Aβ42 lowering in vivo is shown but it is only one of many variations that could be used to optimize the levels of detectable Aβ. For example, Aβ42 lowering compounds were formulated in 20% of Captisol® (a sulfobutyl ether of β-cyclodextrin) in water or 20% hydroxypropyl β cyclodextrin. The Aβ42 lowering agents were administered as a single oral dose or by any acceptable route of administration to overnight fasted animals. After 4 h, the animals were sacrificed and Aβ42 levels were analysed.
(§3) Blood was collected by decapitation and exsanguinations in EDTA-treated collection tubes. Blood was centrifuged at 1900 g for 10 minutes (min) at 4° C. and the plasma recovered and flash frozen for later analysis. The brain was removed from the cranium and hindbrain. The cerebellum was removed and the left and right hemisphere were separated. The left hemisphere was stored at −18° C. for quantitative analysis of test compound levels. The right hemisphere was rinsed with phosphate-buffered saline (PBS) buffer and immediately frozen on dry ice and stored at −80° C. until homogenization for biochemical assays.
(§4) All samples were sonicated for 30 seconds on ice at 20% power output (pulse mode). Homogenates were centrifuged at 221.300×g for 50 min. The resulting high speed supernatants were then transferred to fresh tubes and were optionally further purified before the next step. A portion of the supernatant was neutralized with 10% 0.5 M Tris-HCl and this was used to quantify Aβtotal.
(§5) The obtained supernatants were purified with Water Oasis HLB reverse phase columns (Waters Corp., Milford, Mass.) to remove non-specific immunoreactive material from the brain lysates prior subsequent Aβ detection. Using a vacuum manifold, all solutions were passed through the columns at a rate of approximately 1 ml per min, so the vacuum pressure was adjusted accordingly throughout the procedure. Columns were preconditioned with 1 ml of 100% MeOH, before equilibration with 1 ml of H2O, Non-neutralized brain lysates were loaded onto the columns. The loaded samples were then washed twice with the first wash performed with 1 ml of 5% MeOH, and the second wash with 1 ml of 30% MeOH. Finally, the Aβ was eluted from the columns and into 100×30 mm glass tubes, with a solution of 90% MeOH with 2% NH4OH. The eluate was then transferred into 1.5 ml tubes and concentrated in a speed-vac concentrator on high heat for about 1.5-2 h at 70° C. The concentrated Aβ was then resuspended in UltraCULTURE General Purpose Serum-Free Medium (Cambrex Corp., Walkersville, Md.) plus Protease Inhibitors added.
To quantify the amount of Aβ42 in the soluble fraction of the brain homogenates, commercially available Enzyme-Linked-Immunosorbent-Assay (ELISA) kits were used (e.g. Innotest® β-Amyloid(1-42), Innogenetics N.V., Ghent, Belgium). The Aβ42 ELISA was performed using the plate provided with the kit only.

Data set [4] has as its system Aβtotal. Put plainly: In vivo efficacy Method 1: brain soluble Aβtotal by ELISA. Further details: species or system mouse. The following applies: Table 4a, single oral dose, overnight fasted animals, sacrificed after 4 h, soluble fraction of brain homogenates.
Description: as §1, §2, §3, §4
as §5, with “added. […]” for “added.”

Data set [5] relates to Aβ42. Put plainly: Screening for γ-secretase-modulating activity, Method 2: Aβ42 Alphalisa on SKNBE2 cell supernatant. The data set is classed as cell-based. The settings on record: Homo sapiens, Method 2, Table 3c, SKNBE2 cells carrying APP 695 wild type, overnight incubation. The method, boiled down: (§6)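 SKNBE2 cells expressing wild-type APP695, plated at 10^4 cells/well with compound at several concentrations and incubated overnight at 37° C. Aβ42 (C-terminal capture, N-terminal biotinylated detection) and Aβtotal (N-terminal/4G8 pair) measured in supernatant by AlphaLISA. IC50 from 4-parameter fit of percent of compound-free control.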
(In Alpha technology, singlet oxygen from a donor bead excites a nearby acceptor bead.)

The subject of data set [6] is Aβtotal. As to the kind of experiment: Screening for γ-secretase-modulating activity, Method 2: Aβtotal Alphalisa on SKNBE2 cell supernatant. The data set is classed as cell-based. The following applies: Homo sapiens, Method 2, Table 3c, SKNBE2 cells carrying APP 695 wild type, overnight incubation. The method, boiled down:
as §6

For data set [7], the system named is Notch-processing activity of the γ-secretase-complex. As to the kind of experiment: Notch cell-free assay (NICD production from recombinant Notch substrate N99). The data set is classed as biochemical, mouse. The settings on record: 1 μM test compound, 0.3-0.5 μM Notch substrate, 37° C. for 6 to 22 h, western blotting. How it is done:
The Notch transmembrane domain is cleaved by gamma secretase to release
Notch Intracellular C-terminal Domain (NICD).
To monitor the effect of compounds on NICD production, a recombinant Notch substrate (N99) was prepared. The Notch substrate, comprised of mouse Notch fragment (V1711-E1809), an N-terminal methionine and a C-terminal FLAG sequence ([…]), was expressed in E. coli and purified on a column containing an anti-FLAG M2 affinity matrix.
A typical Notch cell-free assay consisted of 0.3-0.5 μM Notch substrate, an enriched preparation of γ secretase and 1 μM of a test compound (compounds 8, 15, 92, 108, 114 and 130 of the present invention). Controls included a γ secretase inhibitor (GSI), such as (2S)—N-[2-(3,5-difluorophenyeacetyl]-L-alanyl-2-phenyl-glycine 1,1-dimethylethyl ester (DAPT) or (2S)-2-hydroxy-3-methyl-N-[(1S)-1-methyl-2-oxo-2-[[(1S)-2,3,4,5-tetrahydro-3-methyl-2-oxo-1H-3-benzazepin-1-yl]amino]ethyl]-butanamide (Semagacestat), and DMSO, the final concentration of DMSO being 1%. Recombinant Notch substrate was pre-treated with 17 μM DTT (1,4-dithiothreitol) and 0.02% SDS (Sodium Dodecyl Sulfate) and heated at 65° C. for 10 min. The mixture of substrate, gamma secretase and compound/DMSO was incubated at 37° C. for 6 to 22 hours (h). 6 h incubation was sufficient to produce the maximal amount of NICD and the cleaved product remained stable for an additional 16 h. Reaction products were processed for SDS PAGE (Sodium Dodecyl Sulfate-Poly Acrylamide Gel Electrophoresis) and western blotting. Blots were probed with an anti-Flag M2 antibody, followed by LI-COR infrared secondary antibody, and analyzed with the Odyssey Infrared Imaging System (LI-COR® Biosciences).

The test system of data set [8] is T1, Notch-processing activity of the γ-secretase-complex.
T1 construct: average IC50 Notch cell-based assay (luciferase readout); other: N2-CHO/DL-CHO co-culture 16 h; five-point curve 3 μM-
As to the kind of experiment: Notch cell-based assay (N2-CHO/DL-CHO co-culture, Dual-Glo luciferase). Also noted: species or system mouse. The following applies: N2-CHO/DL-CHO co-culture 16 h; read-out: average IC50 Notch cell-based assay (luciferase readout). The source says:
The Notch cell-based assay was based on the interaction of Notch and its ligand in a co-culture system and utilized the Dual-Glo Luciferase Assay System (Promega) to monitor NICD production. 2 stable cell lines, N2-CHO and DL-CHO, were established to express full-length mouse Notch2 and Delta respectively. Cells that expressed mouse Notch were also transfected with 2 plasmids, pTP1-Luc and pCMV-RLuc, to express firefly and Renilla luciferase. Expression of firefly luciferase was under the control of TP1 promoter that responded to NICD activation.
N2-CHO cells were seeded at 1×10^5/well in 24-well plates the day before transfection. On the second day, cells were double transfected with 3 μg/well pTP1-Luc (expressing firefly luciferase) and 0.3 ng/well pCMV-RLuc (expressing Renilla luciferase). After 6 h incubation, transfected N2-CHO cells were washed and DL-CHO cells (2×10^5 cells/well) were added.
Compounds were pre-mixed with DL-CHO cell suspension in a five-point curve. Typically, compound treatment was performed in duplicate with a serial 1:10 dilution (3 μM-0.3 nM) in DMSO. The final concentration of DMSO in a given culture was 1%. Controls included non-transfected cells and transfected cells treated with a GSI or DMSO only. Luciferase assays were performed after 16 h co-culture and compound treatment.
The luciferase assay was carried out according to manufacture's instructions. Briefly, cells were washed with PBS (Phosphate Buffered Saline), lysed with Passive Lysis Buffer (Promega), and incubated at room temperature for 20 min. Lysates were mixed with Dual-Glo Luciferase Reagent and the firefly luciferase activity was measured by reading the luminescence signal in the EnVision 2101 Multilabel reader. Dual-Glo Stop & Glo Reagent was then added to each well and the Renilla luciferase signal was measured.

The mark [9] stands for this setting: Table 3a, 18 hours, XLfit, top/bottom fixed to 100 and 0, hill slope 1.
Setting [10] is: Table 3b, non-linear regression of % of control, averaged IC50 values.

In turn, `Cc1cn(-c2ncc(Nc3cccc4c3nc(-c3ccc(F)cc3)n4C)cn2)cn1` [Compound 6] registered a melting point of 201.7 °C. This compound also came in with an IC50 in the data set with Aβ42 [1] (setting [9]) of 29 nM. This compound gave an IC50 in the data set on Aβ42 [1] (setting [10]) of 28 nM. For the same compound, the IC50 in the data set with Aβtotal [2] (setting [9]) is more than 1000 nM. The IC50 in the data set with Aβtotal [2] (setting [10]) is more than 3000 nM. Besides, the “Aβ42 (% Ctrl) _Mean” value in the data set on Aβ42 [3] is on record as 66 % Ctrl. For the same compound, the “Aβtotal (% Ctrl) _Mean” value in the data set on Aβtotal [4] amounted to 91 % Ctrl.

`COc1cc(Nc2cccc3c2nc(N2CCC(F)(F)CC2)n3C)ccc1-n1cnc(C)c1` [Compound 12] gave a melting point of 81.2 °C. Further, the IC50 in the data set on Aβ42 [1] (setting [9]) came out at 84 nM. Further, the IC50 in the data set on Aβ42 [1] (setting [10]) worked out at 76 nM. Further, the IC50 in the data set with Aβtotal [2] (setting [9]) is more than 3000 nM. In the data set with Aβtotal [2] (setting [10]), this compound showed an IC50 of more than 3000 nM.

Consider `COc1nc(Nc2cc(C(C)C)nc3c2nc(-c2ccc(F)cc2)n3C)ccc1-n1cnc(C)c1` [Compound 111], for which the melting point was determined as 172.3 °C. In addition, it took 4 nM to reach half-maximal inhibition in the data set with Aβ42 [5] (IC50). The compound further came in with an IC50 in the data set with Aβtotal [6] of 4790 nM.

Turning to `CC(=O)Nc1cccc(-c2nc3c(Nc4ccc(-n5cnc(C)c5)c(F)c4)nc(C)cc3n2C)c1` [Compound 141], the melting point was 257.2 °C. The IC50 in the data set with Aβ42 [5] came to 79 nM. This compound came in with a concentration for half-maximal inhibition (IC50) in the data set on Aβtotal [6] of more than 10000 nM.

On to `CC(NC(=O)Cc1cc(F)cc(F)c1)C(=O)NC(C(=O)OC(C)(C)C)c1ccccc1` [DAPT, (2S)—N-[2-(3,5-difluorophenyeacetyl]-L-alanyl-2-phenyl-glycine 1,1-dimethylethyl ester, reference compound], for which the “effect on the Notch-processing activity of the γ-secretase-complex (production of NICD)” value in data set [7] is given as “blocked”. Moreover, the IC50 in data set [8] worked out at 45 nM.

Take `CC(C)[C@H](O)C(=O)N[C@@H](C)C(=O)N[C@@H]1C(=O)N(C)CCc2ccccc21` [Semagacestat, (2S)-2-hydroxy-3-methyl-N-[(1S)-1-methyl-2-oxo-2-[[(1S)-2,3,4,5-tetrahydro-3-methyl-2-oxo-1H-3-benzazepin-1-yl]amino]ethyl]-butanamide, reference compound]: the “effect on the Notch-processing activity of the γ-secretase-complex (production of NICD)” value in data set [7] is reported as “blocked”. Besides, in data set [8], the concentration for half-maximal inhibition (IC50) is 40 nM.
